From the Deep4Chem optical property database
Each block holds one molecule with its values, some of them ahead of it.

Experiment: photoluminescence quantum yield (fraction); solvent given as SMILES

Structure (SMILES): COc1ccc(C2=C3C(C)=CC(C)=[N+]3[B-](F)(F)n3c(/C=C/c4ccc(N(C)C)cc4)cc(C)c32)cc1
photoluminescence quantum yield (in C1CCCCC1): 0.97
photoluminescence quantum yield (in C1CCOC1): 0.56
photoluminescence quantum yield (in C1COCCO1): 0.77
photoluminescence quantum yield (in CC1CCCCC1): 0.86
photoluminescence quantum yield (in CC#N): 0.09
photoluminescence quantum yield (in CC(C)=O): 0.27
photoluminescence quantum yield (in CC(C)OC(C)C): 0.87
photoluminescence quantum yield (in CCC#N): 0.19
photoluminescence quantum yield (in CCCC#N): 0.27
photoluminescence quantum yield (in CCCCO): 0.59
photoluminescence quantum yield (in CCCCOCCCC): 0.91
photoluminescence quantum yield (in CCOC(C)=O): 0.59
photoluminescence quantum yield (in CCOCC): 0.93
photoluminescence quantum yield (in CN(C)C=O): 0.08
photoluminescence quantum yield (in CO): 0.16
photoluminescence quantum yield (in CS(C)=O): 0.056
photoluminescence quantum yield (in Cc1ccccc1): 0.85
photoluminescence quantum yield (in ClC(Cl)Cl): 0.82

Structure (SMILES): c1ccc(-c2cc3cccc[n+]3[b-]3c(-c4cccc5[b-]4[n+]4ccccc4cc5-c4ccccc4)cccc32)cc1
photoluminescence quantum yield (in C1CCCCC1): 0.02

Structure (SMILES): COc1ccc(C(=Cc2ccc(/C=C/c3ccc(C#N)cc3)cc2)c2ccc(OC)cc2)cc1
photoluminescence quantum yield (in C1CCOC1): 0.03

Structure (SMILES): CC(=O)[B-]1(C(C)=O)OC(c2ccc3ccccc3c2)=CC(c2ccc3ccccc3c2)=[O+]1
photoluminescence quantum yield (in CC#N): 0.56
photoluminescence quantum yield (in ClC(Cl)(Cl)Cl): 0.61

Structure (SMILES): O=C1c2cccc3cc(C#CC#Cc4cc5c6c(cccc6c4)C(=O)N(c4ccccc4)C5=O)cc(c23)C(=O)N1c1ccccc1
photoluminescence quantum yield (in ClCCl): 0.79

Structure (SMILES): CCOC(=O)c1ccc2c(c1)[nH]c1c3ccc(C(=O)OCC)cc3sc21
photoluminescence quantum yield (in CCCO): 0.45

Structure (SMILES): FC(F)(F)c1ccc(-c2nnc(-c3cc(-c4nnc(-c5ccc(C(F)(F)F)cc5)o4)c(-n4c5ccccc5c5ccccc54)cc3-n3c4ccccc4c4ccccc43)o2)cc1
photoluminescence quantum yield (in Cc1ccccc1): 0.095
photoluminescence quantum yield (in O=P(c1ccccc1)(c1ccccc1)c1ccccc1Oc1ccccc1P(=O)(c1ccccc1)c1ccccc1): 0.698

Structure (SMILES): COC(=O)C(Cc1ccc2oc(-c3ccc(N(C)c4ccccc4)cc3)nc2c1)NC(=O)OC(C)(C)C (stereo not given)
photoluminescence quantum yield (in C1CCCCC1): 0.998
photoluminescence quantum yield (in C1CCOC1): 0.27
photoluminescence quantum yield (in C1COCCO1): 0.73
photoluminescence quantum yield (in CC1CCCO1): 0.52
photoluminescence quantum yield (in CC1COC(=O)O1): 0.11
photoluminescence quantum yield (in CC#N): 0.11
photoluminescence quantum yield (in CC(C)=O): 0.19
photoluminescence quantum yield (in CC(C)CC(C)(C)C): 1
photoluminescence quantum yield (in CC(C)CO): 0.2
photoluminescence quantum yield (in CC(C)O): 0.19
photoluminescence quantum yield (in CC(O)CO): 0.11
photoluminescence quantum yield (in CCC(C)CC): 0.97
photoluminescence quantum yield (in CCCCC): 1
photoluminescence quantum yield (in CCCCCC): 1
photoluminescence quantum yield (in CCCCCCCCC): 0.95
photoluminescence quantum yield (in CCCCCCCCCC): 1
photoluminescence quantum yield (in CCCCCCCO): 0.21
photoluminescence quantum yield (in CCCCCCO): 0.22
photoluminescence quantum yield (in CCCCCO): 0.28
photoluminescence quantum yield (in CCCCO): 0.18
photoluminescence quantum yield (in CCO): 0.07
photoluminescence quantum yield (in CCOC(C)=O): 0.39
photoluminescence quantum yield (in CCOCC): 0.6
photoluminescence quantum yield (in CN(C)C=O): 0.16
photoluminescence quantum yield (in CO): 0.03
photoluminescence quantum yield (in COCCOC): 0.07
photoluminescence quantum yield (in CS(C)=O): 0.15
photoluminescence quantum yield (in Cc1ccccc1): 0.78
photoluminescence quantum yield (in Cc1ccccc1C): 0.84
photoluminescence quantum yield (in ClC(Cl)Cl): 0.58
photoluminescence quantum yield (in ClCCl): 0.45
photoluminescence quantum yield (in NC=O): 0.02
photoluminescence quantum yield (in OC1CCCCC1): 0.18
photoluminescence quantum yield (in OCCO): 0.03
photoluminescence quantum yield (in c1ccccc1): 0.76

Structure (SMILES): CN(C)c1ccc(C2=Nc3sc4cc(C(F)(F)F)ccc4[n+]3[B-](F)(F)O2)cc1
photoluminescence quantum yield (in C1CCOC1): 0.61
photoluminescence quantum yield (in CC#N): 0.05
photoluminescence quantum yield (in CC(C)=O): 0.13
photoluminescence quantum yield (in Cc1ccccc1): 0.93
photoluminescence quantum yield (in ClCCl): 1

Structure (SMILES): CCCCOc1ccc(-c2oc3cc4n(c3c2-c2ccc(OCCCC)cc2)[B-](F)(F)[N+]2=Cc3cc5oc(-c6ccc(OCCCC)cc6)c(-c6ccc(OCCCC)cc6)c5n3[B-](F)(F)[N+]2=C4)cc1
photoluminescence quantum yield (in C1CCOC1): 0.44
photoluminescence quantum yield (in CN(C)C=O): 0.32
photoluminescence quantum yield (in CS(C)=O): 0.31
photoluminescence quantum yield (in Cc1ccccc1): 0.42
photoluminescence quantum yield (in ClC(Cl)Cl): 0.43
photoluminescence quantum yield (in ClCCl): 0.43

Structure (SMILES): Cc1ccc(/C=C/c2ccccc2-[n+]2cc([O-])on2)cc1
photoluminescence quantum yield (in C1CCCCC1): 0.0007
photoluminescence quantum yield (in CC#N): 0.017

Structure (SMILES): COc1ccc(/C=C/C=C/C=C/c2ccc([N+](=O)[O-])cc2)cc1
photoluminescence quantum yield (in C1CCOC1): 0.44
photoluminescence quantum yield (in C1COCCO1): 0.57
photoluminescence quantum yield (in CC1CCCCC1): 0.21
photoluminescence quantum yield (in CC#N): 0.013
photoluminescence quantum yield (in CO): 0.002
photoluminescence quantum yield (in CS(C)=O): 0.03
photoluminescence quantum yield (in Cc1ccccc1): 0.63
photoluminescence quantum yield (in ClC(Cl)Cl): 0.14
photoluminescence quantum yield (in ClCCl): 0.074

Structure (SMILES): Cc1ccccc1C1=C2C=c3c(oc4ccccc34)=[N+]2[B-](F)(F)n2c1cc1c3ccccc3oc12
photoluminescence quantum yield (in C1CCCCC1): 0.88
photoluminescence quantum yield (in CCOC(C)=O): 0.93
photoluminescence quantum yield (in CO): 0.88

Structure (SMILES): COc1ccc(C2=C(c3ccc(OC)cc3)C(C)(C)c3cc(-c4ccccc4)ccc32)cc1
photoluminescence quantum yield (in C1CCCCC1): 0.06

Structure (SMILES): C#CCn1c2ccccc2c2cc(/C=C/c3cc(C)c4n3[B-](F)(F)[N+]3=C(C)C=C(C)C3=C4c3ccc(I)cc3)ccc21
photoluminescence quantum yield (in CC#N): 0.77
photoluminescence quantum yield (in CS(C)=O): 0.72
photoluminescence quantum yield (in ClC(Cl)Cl): 0.66

Structure (SMILES): Cc1nnc(-c2ccc(-n3c4ccccc4c4ccccc43)cc2)o1
photoluminescence quantum yield (in Cc1ccccc1): 0.55

Structure (SMILES): CCN(CC)c1ccc([N+]2=Cc3ccc4c5c(ccc4c3O[B-]2(c2c(F)c(F)c(F)c(F)c2F)c2c(F)c(F)c(F)c(F)c2F)C=[N+](c2ccc(N(CC)CC)cc2)[B-](c2c(F)c(F)c(F)c(F)c2F)(c2c(F)c(F)c(F)c(F)c2F)O5)cc1
photoluminescence quantum yield (in Cc1ccccc1): 0.33
photoluminescence quantum yield (in ClCCl): 0.1

Structure (SMILES): c1ccc(-c2c3ccccc3nc3cc4ccccc4cc23)cc1
photoluminescence quantum yield (in ClCCl): 0.4

Structure (SMILES): COc1ccc(/C=C/c2nc3ccccc3s2)cc1
photoluminescence quantum yield (in C1CCCCC1): 0.005
photoluminescence quantum yield (in CO): 0.001

Structure (SMILES): c1ccc2c(c1)sc1c3ccccc3c3ncncc3c21
photoluminescence quantum yield (in ClCCl): 0.08

Structure (SMILES): CCCCCCCCCCC1(CCCCCCCCCC)c2cc(-c3nc4ccccc4s3)ccc2-c2ccc(N3C(=O)c4ccc5c6ccc7c8c(ccc(c9ccc(c4c59)C3=O)c86)C(=O)N(c3ccc4c(c3)C(CCCCCCCCCC)(CCCCCCCCCC)c3cc(-c5nc6ccccc6s5)ccc3-4)C7=O)cc21
photoluminescence quantum yield (in Cc1ccccc1): 0.23
photoluminescence quantum yield (in ClCCl): 0.0025

Structure (SMILES): N#Cc1ccc(/C=C2\N=C(c3ccccc3)OC2=O)cc1
photoluminescence quantum yield (in C1COCCO1): 0.028

Structure (SMILES): O=CC1=C(c2ccc(-c3cccs3)s2)CC1
photoluminescence quantum yield (in CCO): 0.32

Structure (SMILES): CC(C)(C)c1ccc2c(c1)c1cc(C(C)(C)C)ccc1n2-c1ccc2oc3nc4oc5ccc(C(F)(F)F)cc5c4cc3c2c1
photoluminescence quantum yield (in C1CCCCC1): 0.113
photoluminescence quantum yield (in C1CCOC1): 0.073
photoluminescence quantum yield (in CC#N): 0.032
photoluminescence quantum yield (in CS(C)=O): 0.124
photoluminescence quantum yield (in Cc1ccccc1): 0.094
photoluminescence quantum yield (in ClC(Cl)Cl): 0.058

Structure (SMILES): Cc1cc(C)c(B(c2ccc(-c3nc4c5ccccc5c5ccccc5c4[nH]3)cc2)c2c(C)cc(C)cc2C)c(C)c1
photoluminescence quantum yield (in C1CCOC1): 0.79
photoluminescence quantum yield (in CC(C)=O): 0.71
photoluminescence quantum yield (in CS(C)=O): 0.76
photoluminescence quantum yield (in Cc1ccccc1): 0.92
photoluminescence quantum yield (in ClCCl): 0.8

More lines, now with the values ahead:

photoluminescence quantum yield (in c1ccccc1): 0.604
Structure (SMILES): O=c1oc2c(ccc3cc(O)ccc32)nc1-c1ccccc1

photoluminescence quantum yield (in C1CCCCC1): 0.0018
photoluminescence quantum yield (in CC#N): 0.0048
Structure (SMILES): Cc1ccc(/C=C/c2ccccc2-[n+]2noc([O-])c2-c2ccccc2)cc1

photoluminescence quantum yield (in ClC(Cl)Cl): 0.74
Structure (SMILES): CC(C)c1cccc(C(C)C)c1-n1c(=O)c2ccc3c4ccc5c(=O)n(-c6c(C(C)C)cccc6C(C)C)c(=O)c6cc7c(-c8ccccc8)nc8cc(c1=O)c2c3c8c7c4c56

photoluminescence quantum yield (in C1CCOC1): 0.027
Structure (SMILES): CCCCC1(CCCC)c2cc(C#Cc3ccc(C=C4c5ccccc5CCc5ccccc54)cc3)ccc2-c2ccc(C#Cc3ccc(C=C4c5ccccc5CCc5ccccc54)cc3)cc21

photoluminescence quantum yield (in C1CCOC1): 0.035
photoluminescence quantum yield (in C1COCCO1): 0.0009
photoluminescence quantum yield (in CC#N): 0.0005
photoluminescence quantum yield (in CC(C)O): 0.001
photoluminescence quantum yield (in CCCCO): 0.003
photoluminescence quantum yield (in CCCO): 0.001
photoluminescence quantum yield (in CCOC(C)=O): 0.002
photoluminescence quantum yield (in CN(C)C=O): 0.001
photoluminescence quantum yield (in CO): 0.003
photoluminescence quantum yield (in CS(C)=O): 0.003
photoluminescence quantum yield (in ClC(Cl)Cl): 0.002
photoluminescence quantum yield (in O): 0.001
Structure (SMILES): N#Cc1coc2ccccc2c1=O

photoluminescence quantum yield (in ClCCl): 0.17
Structure (SMILES): CN(C)c1ccc(/C=C/c2cnccn2)cc1

photoluminescence quantum yield (in C1CCOC1): 0.006
Structure (SMILES): O=P1(c2ccccc2)C(c2cccs2)=C(c2cccs2)c2ccccc21 (stereo not given)

photoluminescence quantum yield (in ClCCl): 0.98
Structure (SMILES): O=P1(c2ccccc2)C2=C(c3ccccc31)S(=O)(=O)c1ccccc12 (stereo not given)

photoluminescence quantum yield (in ClCCl): 0.6
Structure (SMILES): CN(C)c1ccc(C#Cc2cc(C#Cc3ccc(N(C)C)cc3)c3ccc4c(C#Cc5ccc(N(C)C)cc5)cc(C#Cc5ccc(N(C)C)cc5)c5ccc2c3c54)cc1

photoluminescence quantum yield (in ClCCl): 0.19
Structure (SMILES): CN(C)c1ccc(N2c3sc4ccccc4c3Sc3c2sc2ccccc32)cc1

photoluminescence quantum yield (in ClCCl): 0.55
Structure (SMILES): F[B-]1(F)OC(c2ccccc2)=Cc2cc3[n+](c[n+]21)[B-](F)(F)OC(c1ccccc1)=C3

photoluminescence quantum yield (in CC#N): 0.004
Structure (SMILES): c1cc2c3c(cccc3c1)C(N1CCOCCOCCOCCOCC1)=N2

photoluminescence quantum yield (in C1CCOC1): 0.03
photoluminescence quantum yield (in CS(C)=O): 0.02
photoluminescence quantum yield (in ClCCl): 0.02
Structure (SMILES): COc1cc(OC)cc(C2=C3C(C)=C(I)C(/C=C/c4c[nH]c5ccc([N+](=O)[O-])cc45)=[N+]3[B-](F)(F)n3c(/C=C/c4c[nH]c5ccc([N+](=O)[O-])cc45)c(I)c(C)c32)c1

photoluminescence quantum yield (in CCO): 0.839
Structure (SMILES): Cc1c(COC(=O)c2ccccc2)n2c(OCC(=O)c3ccccc3)c(C)c(=O)n2c1=O

photoluminescence quantum yield (in ClCCl): 0.23
Structure (SMILES): CCCCN(CCCC)c1ccc2c(c1)C#CC#Cc1cc(C(F)(F)F)ccc1C#Cc1cc(c3cc1C#Cc1ccc(C(F)(F)F)cc1C#CC#Cc1cc(N(CCCC)CCCC)ccc1C#C3)C#C2

photoluminescence quantum yield (in C1CCCCC1): 0.12
photoluminescence quantum yield (in CC#N): 0.02
photoluminescence quantum yield (in ClC(Cl)Cl): 0.08
Structure (SMILES): c1cc2ccc1CCCc1cc3c(cc1CCCc1ccc(c4nsnc14)CCC3)CCC2

photoluminescence quantum yield (in CC#N): 0.34
Structure (SMILES): Oc1ccccc1/C=N/c1cc2nc3ccccc3nc2cc1/N=C/c1ccccc1O
